Results from patent publication US9469650B2, “Melampomagnolide B derivatives” (BOARD OF TRUSTEES OF THE UNIVERSITY OF ARKANSAS, priority 2013, dated 2016).
Read-outs that look alike come from different tables or passages of the source.

Key:
MOLT-4 = assay: panel of 60 human tumor cell lines, growth inhibition (Leukemia); conditions: Homo sapiens; for GI50: MOLT-4; for CC50: MOLT-4, read-out: LC50; for IC (TGI): MOLT-4, read-out: TGI
SF-295 = assay: panel of 60 human tumor cell lines, growth inhibition (CNS Cancer); conditions: Homo sapiens; for GI50: SF-295; for CC50: SF-295, read-out: LC50; for IC (TGI): SF-295, read-out: TGI
HCC-2998 = assay: panel of 60 human tumor cell lines, growth inhibition (Colon Cancer); conditions: Homo sapiens; for GI50: HCC 2998; for CC50: HCC 2998, read-out: LC50; for IC (TGI): HCC 2998, read-out: TGI
NCI-H226 = assay: panel of 60 human tumor cell lines, growth inhibition (Non-Small Cell Lung Cancer); conditions: Homo sapiens; for GI50: NCI-H226; for CC50: NCI-H226, read-out: LC50; for IC (TGI): NCI-H226, read-out: TGI
SNB-19 = assay: panel of 60 human tumor cell lines, growth inhibition (CNS Cancer); conditions: Homo sapiens; for GI50: SNB-19; for CC50: SNB-19, read-out: LC50; for IC (TGI): SNB-19, read-out: TGI
HS 578T = assay: panel of 60 human tumor cell lines, growth inhibition (Breast Cancer); conditions: Homo sapiens, Hs-578T; for CC50: read-out: LC50; for IC (TGI): read-out: TGI
SK-MEL-28 = assay: panel of 60 human tumor cell lines, growth inhibition (Melanoma); conditions: Homo sapiens; for GI50: SK-MEL-28; for CC50: SK-MEL-28, read-out: LC50; for IC (TGI): SK-MEL-28, read-out: TGI
SNB-75 = assay: panel of 60 human tumor cell lines, growth inhibition (CNS Cancer); conditions: Homo sapiens; for GI50: SNB-75; for CC50: SNB-75, read-out: LC50; for IC (TGI): SNB-75, read-out: TGI
LOX IMVI = assay: panel of 60 human tumor cell lines, growth inhibition (Melanoma); conditions: Homo sapiens; for GI50: NCI five dose; for CC50: read-out: LC50; for IC (TGI): read-out: TGI
ACHN = assay: panel of 60 human tumor cell lines, growth inhibition (Renal Cancer); conditions: Homo sapiens; for CC50: read-out: LC50; for IC (TGI): read-out: TGI
UO-31 = assay: as above; conditions: Homo sapiens; for GI50: UO-31; for CC50: UO-31, read-out: LC50; for IC (TGI): UO-31, read-out: TGI
CAKI-1 = assay: as above; conditions: Homo sapiens; for GI50: CAKI-1; for CC50: CAKI-1, read-out: LC50; for IC (TGI): CAKI-1, read-out: TGI
T-47D = assay: panel of 60 human tumor cell lines, growth inhibition (Breast Cancer); conditions: Homo sapiens, T47D; for CC50: read-out: LC50; for IC (TGI): read-out: TGI
SF-268 = assay: panel of 60 human tumor cell lines, growth inhibition (CNS Cancer); conditions: Homo sapiens; for GI50: SF-268; for CC50: SF-268, read-out: LC50; for IC (TGI): SF-268, read-out: TGI
K-562 = assay: panel of 60 human tumor cell lines, growth inhibition (Leukemia); conditions: for GI50 / CC50: Homo sapiens; for GI50: K562; for CC50: K562, read-out: LC50; for Percent Growth / TGI: K-562; for TGI: NCI five dose
SR = assay: as above; conditions: Homo sapiens; for CC50: read-out: LC50; for IC (TGI): read-out: TGI
SW-620 = assay: panel of 60 human tumor cell lines, growth inhibition (Colon Cancer); conditions: Homo sapiens; for GI50: SW-620, SW-620, NCI five dose; for CC50: SW-620, read-out: LC50; for IC (TGI): SW-620, read-out: TGI
M14 = assay: panel of 60 human tumor cell lines, growth inhibition (Melanoma); conditions: Homo sapiens; for GI50: M14; for CC50: M14, read-out: LC50; for IC (TGI): M14, read-out: TGI

C=C1C(=O)O[C@H]2[C@H]1CC/C(COC(=O)OCCN(C)C)=C\CC[C@@]1(C)O[C@@H]21 [JVM 2-35]
GI50 (MOLT-4): 5.5 µM
CC50 (MOLT-4): > 100 µM
IC (TGI) (MOLT-4): 26.1 µM
GI50 (SF-295): 24.7 µM
CC50 (SF-295): > 100 µM
IC (TGI) (SF-295): > 100 µM
GI50 (HCC-2998): 15.8 µM
CC50 (HCC-2998): 61.9 µM
IC (TGI) (HCC-2998): 31.3 µM
GI50 (NCI-H226): 11.9 µM
CC50 (NCI-H226): 89.9 µM
IC (TGI) (NCI-H226): 32.7 µM
GI50 (SNB-19): 18.6 µM
CC50 (SNB-19): > 100 µM
IC (TGI) (SNB-19): 62 µM
GI50 (HS 578T): 13.6 µM
CC50 (HS 578T): > 100 µM
IC (TGI) (HS 578T): 59.3 µM
GI50 (SK-MEL-28): 4.27 µM
CC50 (SK-MEL-28): 48.3 µM
IC (TGI) (SK-MEL-28): 17.9 µM
GI50 (SNB-75): 4.96 µM
CC50 (SNB-75): 50.7 µM
IC (TGI) (SNB-75): 21.5 µM
GI50 (LOX IMVI): 5.16 µM
CC50 (LOX IMVI): 47.5 µM
IC (TGI) (LOX IMVI): 18.2 µM
GI50 (ACHN): 3.26 µM
CC50 (ACHN): 40.9 µM
IC (TGI) (ACHN): 13.4 µM
GI50 (UO-31): 4.58 µM
CC50 (UO-31): 48.3 µM
IC (TGI) (UO-31): 18.6 µM
GI50 (CAKI-1): 3.22 µM
CC50 (CAKI-1): 39.9 µM
IC (TGI) (CAKI-1): 15.6 µM
GI50 (T-47D): 2.95 µM
CC50 (T-47D): 58.8 µM
IC (TGI) (T-47D): 12.4 µM
GI50 (SF-268): 11.7 µM
CC50 (SF-268): 69.3 µM
IC (TGI) (SF-268): 28.5 µM
GI50 (K-562): 5.55 µM
CC50 (K-562): > 100 µM
Percent Growth (K-562; Log10 Concentration −4.0): −33%
Percent Growth (K-562; Log10 Concentration −5.0): 30%
Percent Growth (K-562; Log10 Concentration −6.0): 107%
Percent Growth (K-562; Log10 Concentration −7.0): 96%
Percent Growth (K-562; Log10 Concentration −8.0): 101%
TGI (K-562): 3.00E−5
GI50 (SR): 2.22 µM
CC50 (SR): > 100 µM
IC (TGI) (SR): 12.1 µM
GI50 (SW-620): 3.58 µM
CC50 (SW-620): 50.6 µM
IC (TGI) (SW-620): 15 µM
Percent Growth (HL-60(TB); Log10 Concentration −4.0): −52%
Percent Growth (HL-60(TB); Log10 Concentration −5.0): −17%
Percent Growth (HL-60(TB); Log10 Concentration −6.0): 72%
Percent Growth (HL-60(TB); Log10 Concentration −7.0): 83%
Percent Growth (HL-60(TB); Log10 Concentration −8.0): 94%
GI50 (M14): 3.71 µM
CC50 (M14): 45.6 µM
IC (TGI) (M14): 16.4 µM

C=C1C(=O)O[C@H]2[C@H]1CC/C(COC(=O)OC)=C\CC[C@@]1(C)O[C@@H]21 [JVM 2-40]
GI50 (MOLT-4): 4.05 µM
CC50 (MOLT-4): > 100 µM
IC (TGI) (MOLT-4): 21.7 µM
GI50 (SF-295): 13.2 µM
CC50 (SF-295): 59.3 µM
IC (TGI) (SF-295): 28 µM
GI50 (HCC-2998): 13.8 µM
CC50 (HCC-2998): 56.8 µM
IC (TGI) (HCC-2998): 28 µM
GI50 (NCI-H226): 7.07 µM
CC50 (NCI-H226): 87.7 µM
IC (TGI) (NCI-H226): 27.4 µM
GI50 (SNB-19): 13.5 µM
CC50 (SNB-19): 59.1 µM
IC (TGI) (SNB-19): 28.2 µM
GI50 (HS 578T): 4.72 µM
CC50 (HS 578T): > 100 µM
IC (TGI) (HS 578T): 38.9 µM
GI50 (SK-MEL-28): 3.59 µM
CC50 (SK-MEL-28): 44.8 µM
IC (TGI) (SK-MEL-28): 16 µM
GI50 (SNB-75): 2.69 µM
CC50 (SNB-75): 42.5 µM
IC (TGI) (SNB-75): 17.9 µM
GI50 (LOX IMVI): 3.4 µM
CC50 (LOX IMVI): 43.3 µM
IC (TGI) (LOX IMVI): 13.1 µM
GI50 (ACHN): 2.4 µM
CC50 (ACHN): 32.2 µM
IC (TGI) (ACHN): 8.17 µM
GI50 (UO-31): 3.21 µM
CC50 (UO-31): 42.1 µM
IC (TGI) (UO-31): 14.2 µM
GI50 (CAKI-1): 2.79 µM
CC50 (CAKI-1): 38.8 µM
IC (TGI) (CAKI-1): 15 µM
GI50 (T-47D): 2.7 µM
CC50 (T-47D): 61.3 µM
IC (TGI) (T-47D): 12.5 µM
GI50 (SF-268): 7.36 µM
CC50 (SF-268): 62.8 µM
IC (TGI) (SF-268): 23.6 µM
GI50 (K-562): 4.12 µM
CC50 (K-562): > 100 µM
Percent Growth (K-562; Log10 Concentration −4.0): −31%
Percent Growth (K-562; Log10 Concentration −5.0): 21%
Percent Growth (K-562; Log10 Concentration −6.0): 97%
Percent Growth (K-562; Log10 Concentration −7.0): 99%
Percent Growth (K-562; Log10 Concentration −8.0): 101%
TGI (K-562): 2.53E−5
GI50 (SR): 2.24 µM
CC50 (SR): > 100 µM
IC (TGI) (SR): 12.5 µM
GI50 (SW-620): 2.39 µM
CC50 (SW-620): 47.4 µM
IC (TGI) (SW-620): 11.9 µM
Percent Growth (HL-60(TB); Log10 Concentration −4.0): −55%
Percent Growth (HL-60(TB); Log10 Concentration −5.0): −12%
Percent Growth (HL-60(TB); Log10 Concentration −6.0): 68%
Percent Growth (HL-60(TB); Log10 Concentration −7.0): 91%
Percent Growth (HL-60(TB); Log10 Concentration −8.0): 97%
GI50 (M14): 2.91 µM
CC50 (M14): 42.2 µM
IC (TGI) (M14): 14.1 µM
